Results from PubChem BioAssay (NCI).
“And” between values parts separate entries of the source, which are not always exact repeats. Equal values may be shown once.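 1) Cells in 96-well plates. 2) Compound, 48 h, 5 concentrations. 3) Linear interpolation between surrounding doses. 4) Unreached endpoint = highest concentration. The concentration for 50% growth inhibition is given as GI50. TGI is the concentration that stops growth completely.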

Assays:
Assay in all cases: NCI anticancer screen, dose series, 48 h
[1] = tested on: SK-MEL-2 melanoma
[2] = tested on: MDA-MB-435
[3] = tested on: HCT-116 colon
[4] = tested on: ACHN renal
[5] = tested on: NCI-H522 lung
[6] = tested on: HCC-2998 colon
[7] = tested on: A498 renal
[8] = tested on: MCF7 breast
[9] = tested on: RPMI-8226 leukemia
[10] = tested on: UACC-62 melanoma

SMILES	TGI [1]	TGI [2]	TGI [3]	TGI [4]	TGI [5]	TGI [6]	TGI [7]	TGI [8]	TGI [9]	TGI [10]	GI50 [5]	GI50 [1]	GI50 [2]	GI50 [3]	GI50 [9]	GI50 [4]	GI50 [8]
Cc1c2c(OCCN3CCCCC3)nn(C)c(=O)c2c(C)n1-c1ccccc1	33.1 µM	> 100 µM	> 100 µM	> 100 µM	84.1 µM	65.3 µM	36.9 µM	> 100 µM	95.1 µM	> 100 µM							
CN(C)CCCn1nc(N)c2nc3cc(Cl)ccc3nc21	> 75.7 µM	> 100 µM	> 100 µM	> 100 µM	> 100 µM	> 100 µM	> 100 µM	> 100 µM	> 100 µM	45 µM							
CCN(CC)CCNC(=O)c1cn2c(ccc3sc4ccccc4c(=O)c32)n1	38 µM	54 µM	20.7 µM	18.6 µM	25.6 µM	24.3 µM	33.4 µM	38.2 µM	29 µM	29.1 µM							
C=C1C(=O)O[C@@H]2C[C@]3(C)CC[C@]4(C)[C@H](CC[C@@H]5[C@@]6(C)CCC(=O)C(C)(C)[C@@H]6CC[C@]54C)[C@H]3[C@H]12	47.7 µM	25.4 µM	31.3 µM	24.2 µM	23.2 µM	33.7 µM	35.3 µM	21.4 µM	5.8 µM	32.9 µM							
CC1(C)C2CC(=O)C1(C)C(OCc1ccccc1)C2 (stereo unspecified)	> 100 µM	> 100 µM	66.1 µM	> 100 µM	52.5 µM	> 100 µM	> 100 µM	> 100 µM	> 100 µM	> 100 µM							
N#Cc1c(-c2ccccc2)[nH]c(=O)n(C2OC(CO)C(O)C(O)C2O)c1=O (stereo unspecified)	> 100 µM	> 100 µM	> 100 µM	> 100 µM	63.5 µM and > 100 µM	> 100 µM	> 100 µM	> 100 µM	> 100 µM	> 100 µM	27.6 µM and > 100 µM						
CCCCCCCCCCCCOCCCOP(=O)([O-])OCC[N+](C)(C)C	> 100 µM	> 70 µM	> 86.8 µM	> 80.2 µM	68.3 µM	24.9 µM	83.6 µM	> 100 µM	31.6 µM	> 83.9 µM							
CC(C)=CCC/C(C)=C/CC/C(C)=C/CC/C(=C/CC/C(C)=C\CC/C(C)=C/CC/C(C)=C/CC/C(C)=C/Cc1cc(O)ccc1O)CO	11.5 µM	> 31.8 µM	> 31.9 µM	34.9 µM	6.26 µM	> 42.1 µM	18.2 µM	15.2 µM	> 100 µM	5.17 µM							
Oc1ccc(Cl)cc1CN1CCN(Cc2cc(Cl)ccc2O)C1	4.45 µM	7.92 µM	1.34 µM	4.25 µM	13.2 µM	2.97 µM	29.4 µM	24.1 µM	15.3 µM	3.94 µM							
COc1ccc2cc(CN3CCC(C4CCNCC4)CC3)ccc2c1	3.81 µM	3.58 µM	3.73 µM	11.9 µM	4.54 µM	1.41 µM	14.7 µM	6.32 µM	4.61 µM	3.87 µM							
COc1ccc(N2C=Nn3c(nc4sc5c(c4c3=O)CCCC5)C2)cc1	93.1 µM	> 100 µM	> 100 µM	53.2 µM	> 100 µM	> 100 µM	41.8 µM	> 100 µM	> 100 µM	> 100 µM							
Cc1ccc(NC(=O)CSc2nc(=O)[nH]c3nc[nH]c23)cc1	> 100 µM	> 100 µM	> 100 µM	> 100 µM	> 100 µM	> 100 µM	89.9 µM	> 100 µM	> 100 µM	> 100 µM							
CC(=O)OCC1OC(Oc2cc(C)c(O)cc2C/C=C(\C)CC/C=C(\C)CC(=O)CC(C)C)C(O)C(OC(C)=O)C1OC(C)=O (stereo unspecified)	26.6 µM	48.4 µM	> 50 µM	44.9 µM	> 50 µM	24.5 µM	27.6 µM	43.8 µM	21.4 µM	39.1 µM							
COc1ccc(OC)c(NS(=O)(=O)c2ccc3nc(C)n(NS(=O)(=O)c4cc(OC)ccc4OC)c(=O)c3c2)c1	> 100 µM	> 100 µM	> 100 µM	> 100 µM	> 100 µM	> 100 µM	> 100 µM	> 100 µM	> 100 µM	> 100 µM							
CC(=O)OC1COC(Nc2nc(NCc3ccccc3)n(C)c(=O)c2N=O)C(OC(C)=O)C1OC(C)=O (stereo unspecified)	> 10 µM	> 10 µM	> 10 µM	> 10 µM	> 10 µM	> 10 µM	> 10 µM	> 10 µM	> 10 µM	> 10 µM							
O=C(O)/C(Cc1ccc([N+](=O)[O-])cc1)=N\O	> 100 µM	> 100 µM	> 100 µM	> 100 µM	> 100 µM	> 100 µM	> 100 µM	> 100 µM	> 100 µM	> 100 µM							

SMILES	TGI [1]	TGI [2]	TGI [3]	TGI [4]	TGI [5]	TGI [6]	TGI [7]	TGI [8]	TGI [9]	TGI [10]	GI50 [5]	GI50 [1]	GI50 [2]	GI50 [3]	GI50 [9]	GI50 [4]	GI50 [8]
CC(=O)OC[C@@H](OC(C)=O)[C@H](OC(C)=O)[C@@H]1OC(C)(C)O[C@@H]1C1SCCCS1	> 100 µM	> 100 µM	> 100 µM	> 100 µM	> 100 µM	> 100 µM	> 100 µM	> 100 µM	> 100 µM	> 100 µM							
COc1ccc(N2C(=O)C3c4[nH]c5ccc(F)cc5c4C4CCC(c5ccccc5)CC4C3C2=O)cc1 (stereo unspecified)	59.6 µM	53.9 µM	> 100 µM	74.1 µM	39.1 µM	> 100 µM	34.3 µM	> 100 µM	> 100 µM	27.6 µM							
CC[C@H]1C=CCC[C@@]2(C[C@@H]3CC[C@H]4[C@@H](C(=O)OCCCCCCCCCCCCCCCC(=O)N(CCCN)C[C@@H](O)CCN)[C@@]5(CCC[C@@H](C)O5)NC(=[N+]34)N2)O1	3.29 µM	2.88 µM	2.96 µM	> 10 µM	3.07 µM	3.12 µM	6.62 µM	3.16 µM	2.53 µM	3.5 µM							
CCCCCCCCCCCCCCCC(=O)N(CCCCCCCCCCC(=O)O)CC(O)C(O)C(OC1OC(CO)C(O)C(O)C1O)C(O)CO (stereo unspecified)	43.5 µM	> 100 µM	> 100 µM	> 100 µM	> 100 µM	49.5 µM	> 100 µM	> 100 µM	49.8 µM	34.7 µM							
O=c1[nH]nc(Cc2ccccc2)n1CCO	> 100 µM	> 100 µM	> 100 µM	> 100 µM	> 100 µM	> 100 µM	> 100 µM	> 100 µM	> 100 µM	> 100 µM							
CC1OC(OC2C(OC(=O)[C@]34CCC(C)(C)C[C@H]3C3=CC[C@@H]5[C@@]6(C)CC[C@H](OC7OC(C(=O)O)C(O)C(OC8OCC(O)C(O)C8O)C7O)C(C)(C)[C@@H]6CC[C@@]5(C)[C@]3(C)CC4)OCC(O)C2O)C(O)C(OC2OCC(O)C(O)C2O)C1OC1OCC(O)C(OC2OCC(O)C(O)C2O)C1O (stereo partly specified)	14.5 µM and 34.2 µM	20.1 µM and 32 µM	62.5 µM and > 100 µM	19.6 µM and 25.1 µM	7.93 µM and 25.9 µM	4.13 µM and 11.9 µM	4.79 µM and 8.63 µM	50.7 µM and > 100 µM	19.8 µM and 35.3 µM	36.1 µM and 58.1 µM	2.53 µM and 12.3 µM	6.31 µM and 17.3 µM	7.32 µM and 16.7 µM	8.78 µM and 22.9 µM	5.62 µM and 16.9 µM		
Nc1ccc(C(=O)c2cn(CCN3CCOCC3)c3ccccc23)c2ccccc12	> 100 µM	83 µM	> 100 µM	> 100 µM	> 100 µM	> 100 µM	> 100 µM	> 100 µM	> 100 µM	> 100 µM							
CCOC(=O)C(Cc1cccn1C(=O)OC(C)(C)C)[N+](=O)[O-] (stereo unspecified)	53.9 µM	77.1 µM	51.3 µM	47.5 µM	40.8 µM	42.4 µM	40.6 µM	> 100 µM	45.1 µM	42.9 µM							
O=C(O)Cc1ccc2[nH]c(O)c(C3=Nc4ccccc4C3=O)c2c1	> 100 µM	> 100 µM	68.5 µM	> 100 µM	> 100 µM	> 100 µM	98.7 µM	36.1 µM	> 100 µM	85.7 µM							
CC1=C(C(=O)c2ccccc2)C23C(=O)N(c4ccccc4)C(=O)C2=C(O)C=CC3(O)N1 (stereo unspecified)	57.3 µM	> 100 µM	> 100 µM	40.4 µM	28.9 µM	56.4 µM	> 100 µM	> 100 µM	> 100 µM	48 µM							
O=[N+]([O-])c1ccc(C=NCC2CCCN3CCCCC23)cc1 (stereo unspecified)	> 100 µM	> 100 µM	> 100 µM	> 100 µM	> 100 µM	> 100 µM	> 100 µM	66.6 µM	48.1 µM	> 100 µM							
CC1=Nc2sc3c(c2C2=NCCN12)CCCC3	84.5 µM	91.6 µM	44.7 µM	69.9 µM	41 µM	> 100 µM	90.6 µM	48.1 µM	46.9 µM	32 µM							
CCCCCCCCCCC1OC([C@@H](O)CC[C@H](O)C2CC[C@@H](CCCCCCCC(O)CC3=CC(C)OC3=O)O2)CCC1O (stereo partly specified)	> 18.1 µM	5.58 µM and > 20.2 µM	> 25 µM	8.79 µM and > 25 µM	> 25 µM	> 25 µM	> 25 µM	> 25 µM	15.4 µM	> 25 µM		6.55 µM	1.59 µM	6 µM		1.62 µM	1.34 µM
Nc1nn2c(nc(N)c3c(N)[nH]nc32)c1N=Nc1ccc(Br)cc1	36.5 µM	> 27.9 µM	> 100 µM	> 100 µM	76.9 µM	> 100 µM	> 100 µM	> 100 µM	> 100 µM	> 100 µM							
O=C(O)CC1NCc2cc3ccccc3nc21 (stereo unspecified)	> 100 µM	> 100 µM	> 100 µM	> 100 µM	> 100 µM	> 100 µM	> 100 µM	> 100 µM	> 100 µM	> 100 µM							
Cc1cn([C@@H]2O[C@H](CO[Si](C)(C)C(C)(C)C)[C@]3(O[C@H]3C(=O)NN)[C@H]2O[Si](C)(C)C(C)(C)C)c(=O)[nH]c1=O	17.4 µM	23.1 µM	13.3 µM	15.6 µM	5.47 µM	7.78 µM	30.5 µM	15.1 µM	9.19 µM	24 µM							
